Results from patent US8044198B2, “Sirtuin modulating compounds” (Sirtris Pharmaceuticals, Inc., priority 2005, dated 2011).
Read-outs that look alike come from different tables or passages of the source.

Molecular target: T1, SIRT1 (Homo sapiens, UniProt Q96EB6)
T1 sequence (Q96EB6 1-747): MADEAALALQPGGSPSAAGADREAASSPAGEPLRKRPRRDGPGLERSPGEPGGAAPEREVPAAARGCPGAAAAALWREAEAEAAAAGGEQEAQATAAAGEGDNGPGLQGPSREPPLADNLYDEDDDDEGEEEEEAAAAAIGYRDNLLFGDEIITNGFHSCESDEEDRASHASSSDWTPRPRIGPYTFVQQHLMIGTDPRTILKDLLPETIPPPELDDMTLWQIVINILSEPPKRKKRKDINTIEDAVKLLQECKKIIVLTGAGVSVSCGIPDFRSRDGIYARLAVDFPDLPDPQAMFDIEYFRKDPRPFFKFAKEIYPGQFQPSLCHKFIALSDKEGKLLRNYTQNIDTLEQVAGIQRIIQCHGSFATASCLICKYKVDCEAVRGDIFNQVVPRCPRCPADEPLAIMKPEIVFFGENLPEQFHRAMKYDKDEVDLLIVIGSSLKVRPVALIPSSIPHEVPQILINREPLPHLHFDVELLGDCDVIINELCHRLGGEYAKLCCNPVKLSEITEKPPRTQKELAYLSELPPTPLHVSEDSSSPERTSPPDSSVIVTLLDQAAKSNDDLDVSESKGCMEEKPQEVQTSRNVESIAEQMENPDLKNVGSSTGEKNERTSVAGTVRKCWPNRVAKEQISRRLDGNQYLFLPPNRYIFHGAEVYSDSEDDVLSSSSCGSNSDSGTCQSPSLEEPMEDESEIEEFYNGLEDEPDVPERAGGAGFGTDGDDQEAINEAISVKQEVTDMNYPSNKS
Assay: SIRT1 mass spectrometry (MS) based deacetylation assay; for FOLD ACT. MS: test concentration or dose not given here
Type: biochemical

[1] = Sirt1 activators, fold activation as determined by MS
[2] = Sirt1 activators, mass spectrometry assay, read-out: ED50 MS ASSAY
[3] = SIRT1 activation, mass spectrometry assay, read-out: ED50 MS ASSAY
[4] = SIRT1 fold activation as determined by MS
[5] = fold activation of SIRT1 as determined by MS
[6] = fold activation of SIRT1, mass spectrometry assay

With O=C(Nc1ccccc1-c1nc2cc(CN3CCNCC3)cnc2s1)c1ccc(F)c(F)c1 [Compound 594] the “FOLD ACT. MS” value [1] was “B (B (Fold Activation <250%))” and the EC50 [2] was 5 to 50 µM.

For COc1cc(OC)cc(C(=O)Nc2ccc(-c3nc4ccncc4o3)s2)c1 [Compound 562], the “FOLD ACT. MS” value [1] was “B (B (Fold Activation <250%))” and the EC50 [2] was less than 5 µM.

For COc1cc(OC)cc(C(=O)Nc2ccccc2-c2nc3ccc(CN4CCNCC4)nc3s2)c1 [Compound 726], the EC50 [3] was less than 5 µM and the “FOLD ACT. MS” value [4] was “A (A (Fold activation >250%))”.

In the case of CN(C)c1ccc(C(=O)Nc2ccc(-c3nc4cnccc4s3)s2)cc1 [Compound 519], the “FOLD ACT. MS” value [1] is reported as “B (B (Fold Activation <250%))” and the EC50 [2] is reported as less than 5 µM.

With CC(C)(C)OC(=O)CNCc1csc2nc(-c3ccccc3NC(=O)c3cnc4ccccc4n3)cn12 [Compound 711] the EC50 [3] was 5 to 50 µM and the “FOLD ACT. MS” value [4] was “B (B (Fold Activation <250%))”.

COc1ccc(C(=O)Nc2cc(-c3nc4ccccc4o3)ccn2)cc1OC [Compound 77] was tested, and the EC50 was 5 to 50 µM and the “FOLD ACT. MS” value [5] was “B (B (Fold Activation <250%))”.

For O=C(Nc1ccccc1-c1nc2ccc(CN3CCNCC3)nc2s1)c1cnc2ccccc2n1 [Compound 690], the EC50 [3] was less than 5 µM and the “FOLD ACT. MS” value [4] was “A (A (Fold activation >250%))”.

In the case of COc1cccc(C(=O)Nc2cccc(-c3nc4cccnc4s3)c2)c1 [Compound 212], the EC50 [3] is reported as 5 to 50 µM and the “FOLD ACT. MS” value [5] is reported as “B (B (Fold Activation <250%))”.

In the case of COc1cc(C(=O)Nc2ccccc2-c2nc3ccccc3n2C)cc(OC)c1OC [Compound 313], the EC50 [3] is reported as 5 to 50 µM and the “FOLD ACT. MS” value [6] is reported as “B (B (Fold Activation <250%))”.

COc1cc(C(=O)Nc2ccccc2-c2cn3c(CN4CCNCC4)csc3n2)cc(OC)c1OC [Compound 208] was tested, and the EC50 [3] was 5 to 50 µM and the “FOLD ACT. MS” value [5] was “A (A (Fold activation >250%))”.

In the case of COc1ccc(C(=O)Nc2cc(CN(C)C)cc(-c3nc4ncccc4o3)c2)cc1OC [Compound 156], the EC50 [3] is reported as 5 to 50 µM and the “FOLD ACT. MS” value [5] is reported as “B (B (Fold Activation <250%))”.

For COc1ccc(C(=O)Nc2cc(CN(C)C)cc(-c3nc4ncccc4o3)c2)c(OC)c1 [Compound 158], the EC50 [3] was 5 to 50 µM and the “FOLD ACT. MS” value [5] was “B (B (Fold Activation <250%))”.

In the case of COc1cc(C(=O)Nc2ccccc2-n2cccn2)cc(OC)c1OC [Compound 176], the EC50 [3] is reported as 51 to 100 µM and the “FOLD ACT. MS” value [5] is reported as “B (B (Fold Activation <250%))”.

In the case of O=C(Nc1ncccc1-c1cn2c(CN3CCOCC3)csc2n1)c1cnc2ccccc2n1 [Compound 621], the “FOLD ACT. MS” value [1] is reported as “A (A (Fold activation >250%))” and the EC50 [2] is reported as less than 5 µM.

COc1ccc(C(=O)Nc2cccc(-c3nc4ncccc4o3)n2)c(OC)c1 [Compound 69] was tested, and the EC50 [3] was 5 to 50 µM and the “FOLD ACT. MS” value [5] was “B (B (Fold Activation <250%))”.

With COc1cc(C)ccc1C(=O)Nc1ccc(-c2nc3cccnc3[nH]2)cc1 [Compound 149] the EC50 [3] was less than 5 µM and the “FOLD ACT. MS” value [5] was “B (B (Fold Activation <250%))”.

For O=C(Nc1ccccc1-c1cn2c(CN3CCNCC3)csc2n1)c1c[nH]c2ccccc12 [Compound 510], the “FOLD ACT. MS” value [1] was “A (A (Fold activation >250%))” and the EC50 [2] was less than 5 µM.

CC(C)(C)c1ccc(S(=O)(=O)Nc2ccccc2-c2nc3ncccc3o2)cc1 [Compound 98] was tested, and the EC50 [3] was greater than 150 µM.

COc1cc(C(=O)Nc2cccc(-c3cccnc3)c2)cc(OC)c1OC [Compound 333] was tested, and the EC50 [3] was 5 to 50 µM and the “FOLD ACT. MS” value [6] was “B (B (Fold Activation <250%))”.

With CN(C)Cc1cc(NC(=O)c2cccc(N(C)C)c2)cc(-c2nc3ncccc3o2)c1 [Compound 157] the EC50 [3] was greater than 150 µM and the “FOLD ACT. MS” value [5] was “B (B (Fold Activation <250%))”.

With CN(C)c1cccc(C(=O)Nc2cccc(-c3nc4ncccc4s3)c2)c1 [Compound 200] the EC50 was less than 5 µM and the “FOLD ACT. MS” value [5] was “B (B (Fold Activation <250%))”.

For COc1cc(OC)cc(C(=O)Nc2ccccc2-c2nc3cc(CN(C)C)cnc3s2)c1 [Compound 722], the EC50 [3] was less than 5 µM and the “FOLD ACT. MS” value [4] was “A (A (Fold activation >250%))”.

COc1cc(C(=O)Nc2ccc(-c3nc4cnccc4o3)cc2)cc(OC)c1OC [Compound 347] was tested, and the EC50 [3] was less than 5 µM and the “FOLD ACT. MS” value [6] was “B (B (Fold Activation <250%))”.

O=C(Cc1ccccc1)Nc1ccccc1-c1cn2c(CN3CCNCC3)csc2n1 [Compound 445] was tested, and the EC50 [3] was 5 to 50 µM and the “FOLD ACT. MS” value [6] was “B (B (Fold Activation <250%))”.

In the case of COc1cc(C(=O)Nc2ccccc2-c2nc3ccccc3[nH]2)cc(OC)c1OC [Compound 293], the EC50 [3] is reported as less than 5 µM and the “FOLD ACT. MS” value [6] is reported as “A (A (Fold activation >250%))”.

COc1ccc(-c2ccc(C(=O)Nc3ccccc3-c3cn4c(CN5CCNCC5)csc4n3)o2)cc1 [Compound 736] was tested, and the EC50 [3] was less than 5 µM and the “FOLD ACT. MS” value [4] was “A (A (Fold activation >250%))”.

In the case of O=C(Nc1ccccc1-c1nc2cc(CN3CCNCC3)cnc2s1)c1ccc2c(c1)OCO2 [Compound 590], the “FOLD ACT. MS” value [1] is reported as “B (B (Fold Activation <250%))” and the EC50 [2] is reported as 5 to 50 µM.

In the case of O=C(Nc1ccccc1-c1nc2ccncc2s1)c1ccc(Oc2ccccc2)nc1 [Compound 392], the EC50 [3] is reported as 5 to 50 µM and the “FOLD ACT. MS” value [6] is reported as “B (B (Fold Activation <250%))”.

For COc1cc(C(=O)Nc2ccccc2-c2cn3cccnc3n2)ccc1CN1CCOCC1 [Compound 542], the “FOLD ACT. MS” value [1] was “A (A (Fold activation >250%))” and the EC50 [2] was 5 to 50 µM.

With COc1cc(C(=O)Nc2ccc(-c3nc4ccncc4o3)cc2)cc(OC)c1OC [Compound 341] the EC50 [3] was less than 5 µM and the “FOLD ACT. MS” value [6] was “B (B (Fold Activation <250%))”.

With COc1cc(C(=O)Nc2ccccc2-c2nc3ncccc3o2)ccc1CN1CCN(C)CC1 [Compound 632] the “FOLD ACT. MS” value [1] was “A (A (Fold activation >250%))” and the EC50 [2] was 5 to 50 µM.

COc1ccc(C(=O)Nc2ccccc2-c2nc3ccccn3c2CN(C)C)cc1OC [Compound 350] was tested, and the EC50 [3] was 51 to 100 µM and the “FOLD ACT. MS” value [6] was “B (B (Fold Activation <250%))”.

For COc1ccc(C(=O)Nc2ccccc2-c2cn3c(CN4CCOCC4)csc3n2)cc1OC [Compound 209], the EC50 [3] was 5 to 50 µM and the “FOLD ACT. MS” value [5] was “A (A (Fold activation >250%))”.

COc1cc(C(=O)Nc2ccccc2-c2cn3ccccc3n2)ccc1CN1CCOCC1 [Compound 541] was tested, and the “FOLD ACT. MS” value [1] was “B (B (Fold Activation <250%))” and the EC50 [2] was 5 to 50 µM.

For COc1cc(C)ccc1C(=O)Nc1cccc(-c2nc3cccnc3[nH]2)c1 [Compound 182], the EC50 [3] was less than 5 µM and the “FOLD ACT. MS” value [5] was “A (A (Fold activation >250%))”.
